Results from US6348317B1, “Fluorescent and DNA cleavage properties of peptide/dye conjugates” (The Arizona Board of Regents, priority 1999, dated 2002).

Target: fluorescein labeled GRE2 sequence dsDNA (F-GRE2)
Assay: Total fluorescence quenching (energy transfer) of fluorescein labeled DNA
Format: binding
Description: Fluorescence Measurements. Steady state fluorescence anisotropy measurements were carried out in 20 mM Tris (pH 7.9), 30 mM NaCl, 20 mM KCl, 1 mM MgCl2, and 5% glycerol. […] DNA samples used were either the non-labeled sequences shown in FIG. 2 or a fluorescein labeled duplex with a sequence matching GRE2 (FIG. 2).
For fluorescein labeled DNA measurements, the excitation wavelength was 491 nm and the emission was recorded at 521 nm with a 1.0 nm slit width. Titrations were performed holding the concentration of fluorescein-labeled DNA constant and increasing the concentration of TO, ZF or TO-ZF as indicated. To correct for the small amount of background fluorescence from TO in these measurements, control experiments were performed in parallel using DNA that was not fluorescein labeled, but was otherwise identical to the labeled DNA fragments. The thiazole orange fluorescence intensity measured in the control experiments was subtracted from the total fluorescence intensity for each data point. Under the excitation conditions of these measurements, the contribution to fluorescence by TO at 521 nm was less than 5% of the maximum fluorescence signal observed in the experiment. Even at the point in the titration where the maximum quenching of fluorescein fluorescence was observed (the point of lowest total fluorescence in the measurement), less than half of the fluorescence was due to TO, and this could accurately be removed by subtraction of the control value. Each point is an average of 60 measurements, and each titration was performed independently three times.
Total fluorescence data were collected in parallel to the anisotropy measurements and were calculated from raw data as the fluorescence intensity in the vertical plane plus two times the fluorescence intensity of the horizontal plane, (TF=Ivv+2Ivh). These values were used to determine the percent of the maximum fluorescence for each point along the titration and fit to equation 2. [formula] […]
Fluorescence changes upon binding of TO, ZF and TO-ZF to GRE containing duplex DNA. Equilibrium binding of the non-labeled zinc finger (ZF), unconjugated thiazole orange (TO) and thiazole orange-zinc finger conjugate (TO-ZF) to fluorescein labeled GRE2 sequence dsDNA was measured by both fluorescence anisotropy and total fluorescence. […] For fluorescein fluorescence, excitation was at 491 nm and emission was detected at 521 nm. […] Changes in the steady-state anisotropy of the fluorescein fluorescence from the labeled GRE sequence containing DNA (F-GRE2) can arise from two sources. […] By comparison, the amino acid zinc finger Xfin-31 was determined to have a dissociation constant of approximately 1 μM, M. S. Lee, et al., FEBS 279:289-294 (1991), whereas, the 66 amino acid zinc finger from GATA-1 has a dissociation constant of 10 nM. […]

With “TO-ZF: 29 amino acid single zinc finger from residues 438-465 of glucocorticoid receptor, thiazole orange coupled to a lysine ε-amine” the Kd (1 nM F-GRE2, read-out: dissociation constant from quenching curve, two-state binding model) was 14 nM and the “change in total fluorescein fluorescence over the titration” value (excitation 491 nm, emission 521 nm) was “large decreases in steady state fluorescence”.
